According to ChEMBL document CHEMBL5214911, “Chemical update on the potential for serotonin 5-HT6 and 5-HT7 receptor agents in the treatment of Alzheimer's disease” (Bioorg Med Chem Lett, 2021):

Experiments:
[1] = target: 5-hydroxytryptamine receptor 7 (Homo sapiens, UniProt P34969); test: Binding affinity to 5-HT7R (unknown origin) assessed as inhibition constant
[2] = target: T1, 5-hydroxytryptamine receptor 6 (Homo sapiens, UniProt P50406); test: Binding affinity to 5-HT6R (unknown origin) assessed as inhibition constant
T1 sequence (P50406 whole entry): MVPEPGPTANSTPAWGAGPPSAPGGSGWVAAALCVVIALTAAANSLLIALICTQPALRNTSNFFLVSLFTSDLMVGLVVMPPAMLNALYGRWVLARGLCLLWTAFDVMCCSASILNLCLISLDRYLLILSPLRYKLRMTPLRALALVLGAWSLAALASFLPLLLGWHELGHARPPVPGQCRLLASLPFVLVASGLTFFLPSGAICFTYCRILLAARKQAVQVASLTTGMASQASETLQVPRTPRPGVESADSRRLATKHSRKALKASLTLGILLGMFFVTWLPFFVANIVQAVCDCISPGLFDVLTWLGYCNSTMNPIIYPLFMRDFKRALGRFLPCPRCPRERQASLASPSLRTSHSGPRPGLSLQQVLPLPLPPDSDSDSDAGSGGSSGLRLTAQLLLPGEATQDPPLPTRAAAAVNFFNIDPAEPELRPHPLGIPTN

[3] = target: T2, 5-hydroxytryptamine receptor 1A (Homo sapiens, UniProt P08908); test: Binding affinity to 5-HT1A (unknown origin) assessed as inhibition constant
T2 sequence (P08908 whole entry): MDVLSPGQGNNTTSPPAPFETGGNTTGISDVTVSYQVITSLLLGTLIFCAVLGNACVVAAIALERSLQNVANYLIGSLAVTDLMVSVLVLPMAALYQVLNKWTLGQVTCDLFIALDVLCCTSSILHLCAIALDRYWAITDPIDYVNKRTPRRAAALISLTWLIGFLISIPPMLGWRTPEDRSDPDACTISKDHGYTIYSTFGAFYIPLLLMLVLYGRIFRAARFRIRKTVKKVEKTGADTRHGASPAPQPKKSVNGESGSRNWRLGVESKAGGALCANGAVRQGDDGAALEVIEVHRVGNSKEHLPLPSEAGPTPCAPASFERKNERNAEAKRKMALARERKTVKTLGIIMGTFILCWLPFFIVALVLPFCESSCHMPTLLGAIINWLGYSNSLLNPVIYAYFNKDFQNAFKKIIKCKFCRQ

[4] = target: T1, 5-hydroxytryptamine receptor 6; test: Displacement of [125I]cAMP-tracer from 5-HT6R in human HeLa cells assessed as measuring cAMP level incubated for 15 mins by radioimmunoassay; assay type: cell-based
[5] = target: T3, Alpha-2C adrenergic receptor (Homo sapiens, UniProt P18825); test: Binding affinity to alpha2C AR (unknown origin) assessed as inhibition constant
T3 sequence (P18825 whole entry): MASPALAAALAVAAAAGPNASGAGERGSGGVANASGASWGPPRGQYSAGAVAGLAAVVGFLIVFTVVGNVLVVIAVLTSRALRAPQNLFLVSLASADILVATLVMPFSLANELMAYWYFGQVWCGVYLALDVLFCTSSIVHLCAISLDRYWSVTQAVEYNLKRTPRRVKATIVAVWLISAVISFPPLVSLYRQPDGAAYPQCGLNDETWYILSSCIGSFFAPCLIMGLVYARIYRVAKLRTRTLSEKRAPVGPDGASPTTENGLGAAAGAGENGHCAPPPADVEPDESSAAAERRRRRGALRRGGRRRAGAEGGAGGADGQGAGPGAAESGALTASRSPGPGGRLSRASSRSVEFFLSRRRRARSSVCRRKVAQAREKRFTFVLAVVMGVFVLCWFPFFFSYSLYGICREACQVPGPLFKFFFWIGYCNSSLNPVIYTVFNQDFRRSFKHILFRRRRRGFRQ

Sequence of 5-hydroxytryptamine receptor 7 (P34969 whole entry): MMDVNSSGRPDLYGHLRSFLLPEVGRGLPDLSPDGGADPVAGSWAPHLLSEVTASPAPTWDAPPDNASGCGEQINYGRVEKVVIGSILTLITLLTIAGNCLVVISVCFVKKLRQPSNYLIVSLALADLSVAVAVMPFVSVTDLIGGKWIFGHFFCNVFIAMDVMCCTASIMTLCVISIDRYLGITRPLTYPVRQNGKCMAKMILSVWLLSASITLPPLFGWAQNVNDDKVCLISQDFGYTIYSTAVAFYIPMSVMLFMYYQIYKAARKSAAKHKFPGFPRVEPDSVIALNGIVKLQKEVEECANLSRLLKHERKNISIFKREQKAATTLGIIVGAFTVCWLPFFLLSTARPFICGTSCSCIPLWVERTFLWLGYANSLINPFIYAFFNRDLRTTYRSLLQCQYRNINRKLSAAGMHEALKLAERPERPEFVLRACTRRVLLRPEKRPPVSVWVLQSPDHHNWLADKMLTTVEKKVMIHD

SMILES	Ki [1]	Ki [2]	Ki [3]	also measured
CCOCC(Oc1c(C)cccc1C)N1CCN(c2ccccc2OC)CC1 (stereo not given)	156 nM	9970 nM	41 nM	
Clc1ccc(-c2nn(Cc3ccccc3)c3c2CCNCC3)cc1 [JNJ-18038683 FREE BASE]	3 nM			
CCOCC(Oc1c(C)cccc1Cl)N1CCN(c2ccccc2OC)CC1 (stereo not given)	34 nM	9620 nM	< 1 nM	
COc1cc(NS(=O)(=O)c2ccc(OC)c(N3CCNCC3)c2)c(Cl)cc1Cl				Ki [4]: 0.98 nM
O=C1C2C3CCC(C3)C2C(=O)N1CC1CCCCC1CN1CCN(c2nsc3ccccc23)CC1 (stereo not given)				Ki [5]: 11 nM
CCN1CCCC1CNC(=O)c1cc(S(N)(=O)=O)ccc1OC (stereo not given) [SULPIRIDE]	> 3000 nM			
